According to ChEMBL document CHEMBL1146269, “Intermediate analogue inhibitors of mandelate racemase: N-Hydroxyformanilide and cupferron” (Bioorg Med Chem Lett, 2007):

Columns and labels:
Mandelate racemase = molecular target: T1, Mandelate racemase (Pseudomonas putida, UniProt P11444); assay: Inhibition of mandelate racemase in Pseudomonas putida
T1 sequence (P11444 whole entry): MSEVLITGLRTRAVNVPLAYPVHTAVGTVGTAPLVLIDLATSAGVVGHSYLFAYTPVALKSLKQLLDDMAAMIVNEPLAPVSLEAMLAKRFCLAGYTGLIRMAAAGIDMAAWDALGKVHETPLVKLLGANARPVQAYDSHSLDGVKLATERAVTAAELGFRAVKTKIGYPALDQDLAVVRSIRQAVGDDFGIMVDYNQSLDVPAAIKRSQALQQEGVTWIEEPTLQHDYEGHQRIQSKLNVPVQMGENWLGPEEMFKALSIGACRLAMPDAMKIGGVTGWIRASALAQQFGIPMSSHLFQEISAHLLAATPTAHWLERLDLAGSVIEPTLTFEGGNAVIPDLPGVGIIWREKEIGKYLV

[1] = Dissociation constant, pKa of the compound; assay type: physicochemical

Compound	Ki (Mandelate racemase) [µM]	pKa [1]
O=NN(O)c1ccccc1 [CUPFERRON]	2.67	–
O=CN(O)c1ccccc1	2.79	7.92
O=C(NO)c1ccccc1 [BENZOHYDROXAMATE]	12	–
O=C1Cc2ccccc2N1O	510	–
